Laboratory results from BindingDB's records for doi:10.1111/cbdd.12050 (Epizyme, 2012).

Target: Histone-lysine N-methyltransferase, H3 lysine-79 specific (Homo sapiens, UniProt Q8TEK3)
Experiment: Enzyme Assay
Method: Assay of DOT1L enzymatic activity were performed under balanced conditions using a radiometric assay.

Chain of Histone-lysine N-methyltransferase, H3 lysine-79 specific (Q8TEK3 whole entry): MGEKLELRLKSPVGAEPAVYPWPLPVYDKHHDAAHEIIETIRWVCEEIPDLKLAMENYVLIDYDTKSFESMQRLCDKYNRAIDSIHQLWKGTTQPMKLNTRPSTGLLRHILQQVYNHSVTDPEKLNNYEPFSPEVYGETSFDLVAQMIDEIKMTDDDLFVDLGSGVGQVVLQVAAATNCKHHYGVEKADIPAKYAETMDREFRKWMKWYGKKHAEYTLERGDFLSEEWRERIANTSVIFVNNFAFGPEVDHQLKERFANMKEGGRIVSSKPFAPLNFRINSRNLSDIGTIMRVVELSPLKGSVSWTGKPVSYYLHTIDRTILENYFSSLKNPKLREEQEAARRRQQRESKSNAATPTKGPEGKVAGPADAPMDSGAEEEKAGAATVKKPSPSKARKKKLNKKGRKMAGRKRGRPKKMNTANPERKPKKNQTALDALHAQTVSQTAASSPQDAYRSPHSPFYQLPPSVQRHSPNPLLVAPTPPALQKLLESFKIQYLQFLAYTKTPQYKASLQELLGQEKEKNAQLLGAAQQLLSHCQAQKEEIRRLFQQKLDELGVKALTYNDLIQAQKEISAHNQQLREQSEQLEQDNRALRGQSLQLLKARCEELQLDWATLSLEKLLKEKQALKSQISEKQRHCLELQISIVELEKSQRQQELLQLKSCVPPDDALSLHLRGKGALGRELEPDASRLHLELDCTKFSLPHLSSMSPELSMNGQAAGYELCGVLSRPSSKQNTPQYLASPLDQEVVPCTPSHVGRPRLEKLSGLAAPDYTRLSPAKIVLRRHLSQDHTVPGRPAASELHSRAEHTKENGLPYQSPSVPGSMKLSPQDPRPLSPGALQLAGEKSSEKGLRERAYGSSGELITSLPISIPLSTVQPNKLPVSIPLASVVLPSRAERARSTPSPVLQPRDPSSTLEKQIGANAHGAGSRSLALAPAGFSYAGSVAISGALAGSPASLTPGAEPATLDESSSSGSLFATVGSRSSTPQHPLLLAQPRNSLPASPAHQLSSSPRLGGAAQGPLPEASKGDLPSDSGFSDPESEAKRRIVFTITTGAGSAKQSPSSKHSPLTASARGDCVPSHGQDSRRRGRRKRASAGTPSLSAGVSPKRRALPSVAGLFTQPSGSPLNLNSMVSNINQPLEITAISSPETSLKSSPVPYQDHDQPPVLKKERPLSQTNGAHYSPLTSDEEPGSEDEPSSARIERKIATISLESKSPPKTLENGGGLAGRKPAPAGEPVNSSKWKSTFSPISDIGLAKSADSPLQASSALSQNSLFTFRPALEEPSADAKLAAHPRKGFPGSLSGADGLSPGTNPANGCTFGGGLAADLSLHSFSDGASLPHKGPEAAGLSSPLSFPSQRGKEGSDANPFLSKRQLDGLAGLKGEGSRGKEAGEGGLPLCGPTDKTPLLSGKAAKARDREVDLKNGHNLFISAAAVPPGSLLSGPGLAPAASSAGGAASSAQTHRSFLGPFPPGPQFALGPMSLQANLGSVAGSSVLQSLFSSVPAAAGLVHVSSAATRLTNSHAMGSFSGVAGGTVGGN

CN(CCNC(=O)Nc1ccc(C(C)(C)C)cc1)CC1OC(n2cnc3c(N)ncnc32)[C@H](O)[C@@H]1O (some centres not stated) [EPZ003647]
Kd: 167 nM | Ki: 845 nM
